Laboratory results: patent US12385013B2, “Differentiation of pancreatic endocrine cells” (Vertex Pharmaceuticals Incorporated, priority 2020, dated 2025)

Legend:
[1] = tested on: cells differentiated from human stem cells; assay: Yield of total cells; format: cell-based
Procedure: (§1) In another experiment, the effect of two different PKC activators on enterochromaffin cells and alpha cells was examined. In this experiment, three differentiation conditions were examined and compared: Version A protocol; Version A with PDBU applied at 0.5 μM on days S4d5, S5d1, and S5d2 (VA+PDBU); and Version A with ((2S,5S)-(E,E)-8-(5-(4-(Trifluoromethyl)phenyl)-2,4-pentadienoylamino)benzolactam) at 0.1 μM on days S4d5, S5d1, and S5d2 (VA+TPPB). FIG. 11B summarizes the percentages of NKX6.1-positive/ISL-negative cells and ISL1-positive/NKX6.1-negative cells at S5c generated via the different protocols, as measured by flow cytometry (exemplified in FIG. 11A).

[2] = tested on: S5c cells differentiated from human stem cells; assay: Flow cytometry of NKX6.1/ISL1 at S5c; format: cell-based; details: for effect on alpha cells (ISL1-positive/NKX6.1-negative) / effect on sc-EC cells (NKX6.1-positive/ISL-negative): PDBU 0.5 μM or TPPB 0.1 μM on S4d5, S5d1, S5d2
Procedure: In one experiment, effect of application of PDBU and gamma secretase inhibitor, XXI, was tested. In this experiment, three differentiation conditions were examined and compared: Version A protocol; Version B; Version B+XXI (both PDBU and XXI was applied from S4d5 to S5d2, and XXI continued to be applied throughout S5). FIG. 10B summarizes the percentages of ISL1-positive cells and ISL1-negative cells at S5c generated via different protocols, as measured by flow cytometry (exemplified in FIG. 10A). As shown in the figure, combined PKC activation and gamma secretase inhibition starting during S4 led to robust induction of ISL1-positive cells from about 65% to higher than 90%, whereas PKC activation alone led to about 80% ISL1-positive cells.
as §1

[3] = tested on: Stage 6 cells differentiated from human stem cells; assay: Flow cytometry of Stage 6 endocrine cell populations (C-peptide/VMAT1, GCG/SST); format: cell-based
Procedure: (§2) Both Version A and Version B protocols are 6-stage stepwise protocols that share similar reagents and treatment timing. With Version A protocols, stem cells were treated with reagents in the following consecutive orders during the first five stages: Stage 1 (S1), Activin-A for 3 days and also CHIR99021 for the first 24 hr; Stage 2 (S2), KGF for 3 days; Stage 3 (S3), KGF, PDBU, Sant-1, retinoic acid (RA), Activin A, and Thiazovivin for 2 days, and also DMH-1 for the first day; Stage 4 (S4), KGF, Sant-1, Thiazovivin, Activin A, and RA for 6 days; Stage 5 (S5), XXI, Alk5i, GC-1, LDN-193189, Thiazovivin, Staurosporine, and DZNEP for 7 days, and also RA, Sant-1, and Betacellulin for the first 2 days. In Version B protocols, one difference from Version A protocols is that the cells were supplemented with PDBU from day 5 of Stage 4 (S4d5) to day 2 of Stage 5 (S5d2). In one experiment, 500 nM of PDBU was used to treat the cells during S4d5 to S5d2.
In one experiment, four different exemplary Stage 6 treatment paradigms were also tested at S6 in combination with the first five stages of Version A or Version B protocols. Briefly, i) with S6-a paradigm, S5c cells were cultured in DMEM/F12 medium containing 1% HSA for 7-14 days; ii) with S6-b paradigm, S5c cells were cultured in MCDB131 medium containing 0.05% HSA and the following supplements (per 1 L MCDB131): 0.44 g Glucose, 1.23 g NaHCO3, 0.044 g Vitamin C, 10 ml Glutamax, and 5 ml ITS-x; iii) with S6-c paradigm, S5c cells were cultured in MCDB131 medium containing 0.05% HSA and vitamin C for 7-14 days, during which the cells were treated with 10 μM Alk5i, 1 μM GC-1, 100 nM LDN-193189, 2.5 μM Thiazovivin, 3 nM SSP, and 100 nM DZNEP for the first four days; iv) with S6-d paradigm, S5c cells were cultured in MCDB131 medium (no glutamine base media) containing 0.05% HSA, ITS-X, vitamin C, and 4 mM Gln, as well as […] Alk5i, 1 μM GC-1, 100 nM LDN-193189, 2.5 μM Thiazovivin, 3 nM SSP, and 100 nM DZNEP, for four days, followed by culturing in MCDB131 medium (no glutamine base media) containing 0.05% HSA, ITS-X, vitamin C, and 4 mM Gln with no additional factors for additional 3-10 days.
As shown in the figure, with Version A protocols, the percentage of C-peptide-positive, VMAT1-negative cells on S6d9 or S6d14 were all around 35%, except for VA/S6-a and VA/S6-d on S6d9 (both around 40%), whereas with Version B protocols, the percentage of C-peptide-positive, VMAT1-negative cells was from 45% to 55% on S6d9, and around 45% on S6d14.

[4] = tested on: S5c cells differentiated from human stem cells; assay: SOX9 expression at the end of S5; format: cell-based; details: compared to Version A protocols
[5] = tested on: Stage 6 cells differentiated from human stem cells; assay: Insulin content of generated cells; format: cell-based; details: comparison between protocols
[6] = tested on: S5c cells differentiated from human stem cells; assay: Single-cell RNA sequencing of S5c cells after stem cell differentiation; format: cell-based; details: compared to Version A protocol, PDBU S4d5 to S5d2
Procedure: as §2

S6d13 cells = assay: In vitro glucose-stimulated insulin secretion response; format: cell-based, human
Text: In one experiment, in vitro glucose-stimulated insulin secretion response of S6d13 cells generated by Version A and Version B protocols was examined.

EZH2 = EZH2 (Homo sapiens, UniProt Q15910); details: cited from earlier work
EZH2, sequence (Q15910 whole entry, species assumed): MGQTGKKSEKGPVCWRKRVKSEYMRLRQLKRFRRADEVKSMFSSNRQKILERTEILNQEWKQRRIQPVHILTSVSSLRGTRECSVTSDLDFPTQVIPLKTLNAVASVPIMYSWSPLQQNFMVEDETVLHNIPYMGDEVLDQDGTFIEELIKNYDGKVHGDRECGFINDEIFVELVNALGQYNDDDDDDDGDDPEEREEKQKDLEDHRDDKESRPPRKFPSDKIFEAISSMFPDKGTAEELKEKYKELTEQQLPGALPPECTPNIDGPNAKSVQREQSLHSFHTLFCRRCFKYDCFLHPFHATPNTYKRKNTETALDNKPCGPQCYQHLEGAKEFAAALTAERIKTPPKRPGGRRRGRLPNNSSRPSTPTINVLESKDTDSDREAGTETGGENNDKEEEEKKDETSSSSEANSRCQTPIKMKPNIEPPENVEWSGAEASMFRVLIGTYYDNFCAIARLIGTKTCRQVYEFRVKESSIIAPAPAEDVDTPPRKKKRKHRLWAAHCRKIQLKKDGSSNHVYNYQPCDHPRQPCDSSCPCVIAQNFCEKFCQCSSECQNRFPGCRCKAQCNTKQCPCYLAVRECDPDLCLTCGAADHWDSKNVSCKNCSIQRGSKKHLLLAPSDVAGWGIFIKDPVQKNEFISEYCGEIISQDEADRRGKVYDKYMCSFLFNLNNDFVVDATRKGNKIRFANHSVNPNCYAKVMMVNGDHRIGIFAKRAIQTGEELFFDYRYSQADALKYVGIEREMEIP
EZH2, sequence (O75530 whole entry partner, species assumed): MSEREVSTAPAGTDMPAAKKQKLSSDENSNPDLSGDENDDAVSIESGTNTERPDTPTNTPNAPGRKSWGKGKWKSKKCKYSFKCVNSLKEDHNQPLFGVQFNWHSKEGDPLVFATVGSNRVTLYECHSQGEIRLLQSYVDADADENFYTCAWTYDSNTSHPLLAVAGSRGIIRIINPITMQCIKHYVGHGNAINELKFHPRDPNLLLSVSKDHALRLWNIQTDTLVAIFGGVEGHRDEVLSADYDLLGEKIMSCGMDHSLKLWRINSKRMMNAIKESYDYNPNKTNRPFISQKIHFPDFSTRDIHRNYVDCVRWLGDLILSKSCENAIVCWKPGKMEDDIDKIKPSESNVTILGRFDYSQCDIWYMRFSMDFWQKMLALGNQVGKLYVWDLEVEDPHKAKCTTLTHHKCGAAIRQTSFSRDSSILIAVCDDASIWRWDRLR
EZH2, sequence (Q15022 whole entry partner, species assumed): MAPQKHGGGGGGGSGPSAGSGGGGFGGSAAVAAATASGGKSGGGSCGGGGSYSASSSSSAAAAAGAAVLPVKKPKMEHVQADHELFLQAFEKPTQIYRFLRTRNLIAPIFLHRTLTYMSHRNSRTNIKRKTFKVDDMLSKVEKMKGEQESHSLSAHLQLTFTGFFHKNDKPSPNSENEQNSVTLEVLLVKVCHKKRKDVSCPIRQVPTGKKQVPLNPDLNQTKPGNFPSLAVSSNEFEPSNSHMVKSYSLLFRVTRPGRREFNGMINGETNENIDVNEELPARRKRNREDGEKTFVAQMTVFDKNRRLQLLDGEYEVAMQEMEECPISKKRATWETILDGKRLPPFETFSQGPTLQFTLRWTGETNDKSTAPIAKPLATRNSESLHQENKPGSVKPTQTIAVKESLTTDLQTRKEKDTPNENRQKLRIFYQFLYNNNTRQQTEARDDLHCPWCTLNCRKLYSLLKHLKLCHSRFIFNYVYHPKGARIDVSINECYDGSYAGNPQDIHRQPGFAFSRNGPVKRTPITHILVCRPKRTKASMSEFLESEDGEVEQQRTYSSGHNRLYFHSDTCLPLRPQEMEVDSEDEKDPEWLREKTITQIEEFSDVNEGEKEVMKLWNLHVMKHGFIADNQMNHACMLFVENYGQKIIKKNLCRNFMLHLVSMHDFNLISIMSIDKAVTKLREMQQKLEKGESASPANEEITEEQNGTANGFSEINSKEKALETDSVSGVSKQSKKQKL

SMILES: C[C@H](NC(=O)Cc1cc(F)cc(F)c1)C(=O)N[C@H]1N=C(c2ccccc2)c2ccccc2N(C)C1=O [XXI]
- cell yield ([1]; XXI added to VA/TPPB at days S4d5, S5d1, S5d2): reduction in in cell yield

SMILES: CC(C)[C@H]1C(=O)N[C@H](CO)Cc2cc(NC(=O)/C=C/C=C/c3ccc(C(F)(F)F)cc3)ccc2N1C [VA/TPPB, ((2S,5S)-(E,E)-8-(5-(4-(Trifluoromethyl)phenyl)-2,4-pentadienoylamino)benzolactam)]
- increase in yield of total cells as compared to VA/PDBU ([1]; TPPB 0.1 μM on S4d5, S5d1, S5d2): more than 2 fold
- effect on alpha cells (ISL1-positive/NKX6.1-negative) [2]: increasing alpha cells
- effect on sc-EC cells (NKX6.1-positive/ISL-negative) [2]: similarly effective as VA/PDBU at reducing sc-EC cells

SMILES: CCCC(=O)O[C@@H]1[C@@H](C)[C@@]2(O)[C@@H](C=C(CO)C[C@]3(O)C(=O)C(C)=C[C@@H]23)[C@@H]2C(C)(C)[C@]12OC(=O)CCC [Version B, phorbol 12,13-dibutyrate]
- percentage of EC cells (VMAT1+/C-peptide−) ([3]; S6d9): less than 20%
- percentage of δ cells (SST+/GCG−) ([3]; S6d9, listed as vB/S6-a): around 5%
- percentage of δ cells (SST+/GCG−) ([3]; S6d9, listed as vB/S6-b): around 7%
- percentage of δ cells (SST+/GCG−) ([3]; S6d9, listed as vB/S6-d): around 8%
- percentage of C-peptide-positive, VMAT1-negative cells ([3]; S6d14): around 45%
- percentage of EC cells (VMAT1+/C-peptide−) ([3]; S6d14): less than 20%
- percentage of α cells (GCG+/SST−) ([3]; S6d14, listed as vB/S6-a): around 22%
- percentage of δ cells (SST+/GCG−) ([3]; S6d14, listed as vB/S6-a): around 5%
- percentage of α cells (GCG+/SST−) ([3]; S6d14, listed as vB/S6-b): around 22%
- percentage of δ cells (SST+/GCG−) ([3]; S6d14, listed as vB/S6-b): around 5%
- percentage of α cells (GCG+/SST−) ([3]; S6d14, listed as vB/S6-c): around 15%
- percentage of α cells (GCG+/SST−) ([3]; S6d14, listed as vB/S6-d): around 15%
- percentage of δ cells (SST+/GCG−) ([3]; S6d14, listed as vB/S6-d): around 8%
- cells expressing SOX9 [4]: increased cells expressing SOX9
- insulin content in cells [5]: comparable
- percentage of cells expressing CHGA [6]: comparable percentage
- percentage of cells expressing DDC (marker of enterochromaffin cells) [6]: much reduced percentage
- percentage of cells expressing ISL1 [6]: comparable percentage
- effect on alpha cells (ISL1-positive/NKX6.1-negative) [2]: increasing alpha cells
- effect on sc-EC cells (NKX6.1-positive/ISL-negative) [2]: reducing sc-EC cells
- percentage of ISL1-positive cells ([2]; Version A about 65%): about 80%
- insulin secretion in response to 20 mM glucose challenge as compared to 2.8 mM glucose challenge (S6d13 cells): no clear increase in insulin secretion
- responsiveness to glucose challenges (GSIS) (S6d13 cells): relatively low responsiveness to glucose challenges

SMILES: CC[C@H](C)n1cc(C)c2c(C(=O)NCc3c(C)cc(C)[nH]c3=O)cc(-c3ccc(N4CCNCC4)nc3)cc21 [GSK126]
- selectivity for EZH2 over EZH1 (EZH2): 150 fold

SMILES: CCCc1cc(C)[nH]c(=O)c1CNC(=O)c1cc(-c2ccc(N3CCN(C(C)C)CC3)nc2)cc2c1cnn2C(C)C [UNC1999]
- selectivity relative to GSK126 (EZH2): less selective
